According to patent publication US20080280810A1, “PEPTIDES HAVING AFFINITY FOR BODY SURFACES” (priority 2006, published 2008):

How the values were obtained:
[1] = Phage ELISA, bovine polished enamel binding assay; settings: over 10^10 pfu purified phage, anti-M13 HRP conjugate, TMB, no phage control 0.193
Method: (§1) A total of 11 selected phage candidates (Example 32) was used in a phage ELISA experiment. Purified phage lysates were used for binding to the enamel blocks using an anti-M13 phage antibody conjugated to horseradish-peroxidase, followed by the addition of chromogenic agent TMB, obtained from Pierce Biotechnology (Rockford, Ill.). The plates were read at A450 nm.
(§2) For each phage candidate to be tested, the polished and unpolished enamel blocks were incubated for 1 h at room temperature with 200 μL of blocking buffer, consisting of 2% non-fat dry milk (Schleicher & Schuell, Inc.) in TBS. The blocking buffer was removed by aspirating the liquid out of each tube. The tube was rinsed 6 times with wash buffer consisting of TBST-0.05%. The wells were filled with 200 μL of TBST-0.5% containing 1 mg/mL BSA and then 10 μL (over 10^10 pfu) of purified phage stock was added. The samples were incubated at room temperature for 60 min with slow shaking. The non-binding phage was removed by washing 6 times with TBST-0.5%. Then, 100 μL of horseradish peroxidase/anti-M13 antibody conjugate (Amersham USA, Piscataway, N.J.), diluted 1:500 in the blocking buffer, was added and incubated for 1 h at room temperature. The conjugate solution was removed and was washed 6 times with TBST-0.5%. TMB substrate (200 μL), obtained from Pierce Biotechnology (Rockford, Ill.) was added to each well and the color was allowed to develop for 5 to 30 min, typically for 10 min, at room temperature. Then, stop solution (200 μL of 2 M H2SO4) was added to each well and the solution was transferred to a 96-well plate and the A450 was measured using a microplate spectrophotometer (Molecular Devices, Sunnyvale, Calif.). BoEn means bovine enamel and BoEn P means polished bovine enamel.

[2] = Phage ELISA, bovine enamel binding assay; settings: over 10^10 pfu purified phage, anti-M13 HRP conjugate, TMB, no phage control 0.112
Method: as §1, §2

[3] = Charged multi-block peptide applied to dyed hair (Arianor Sienna Brown, Basic Brown 17) as protective sealant, color loss; set-up: species or system human; key: ΔE color loss vs peptide-free control; ≥3 units = meaningful difference
Method: A 0.5% aqueous Arianor Sienna Brown (Basic Brown 17; Sensient Technologies Corp, Milwaukee, Wis.) solution, containing 3% benzyl alcohol and 0.05% diazolidinyl urea (biocide) was prepared. This dye solution was divided into two equal volumes, one unmodified at pH4 and a second portion adjusted to pH ranged from 8.50 to 9.0, using ethanolamine.
Minitresses (1 inch long) of natural white hair (International Hair Importers and Products, Bellerose, N.Y.) were immersed into the acidic or basic dye solutions for 30 minutes, water rinsed and then air dried overnight. The tresses were then cut into individual sections weighing 30-75 mg each. L*, a*, b* values for individual dyed hair tresses were then measured using a spectrophotometer.
Aqueous peptide solutions varying in concentration were adjusted by addition of ethanolamine to pH […] or made slightly basic (pH 8.5-9.0). The 3% benzyl alcohol diluent was also pH adjusted in the same fashion.
Each cavity of a well plate (Thomson Instrument Co. part no. 931565, 24-10 ml wells), contained the assortment of beads (8 beads in all; 4 Novagen Coli Rollers Plating Beads—sterilized (EMD Biosciences, San Diego, Calif.; Catalog No. 71013), 2 BioSpec 6.35 mm glass beads (BioSpec Products, Bartlesville, Okla.; Catalog No. 11079635), and 2 BioSpec 3.2 mm Stainless Steel Bead (Catalog No. 11079132ss).
Target peptide and diluent were added using an automatic pipette. Controls without peptide were made using pH-adjusted diluent only. After several minutes of mixing (VORTEX-GENIE® 2, Scientific Industries, Bohemia, N.Y.) a small dyed hair tress was added to each well and stirred for 30 minutes on the vortex mixer. When stirring was complete, the hair tresses were removed from the wells and rinsed under running deionized water for 20-30 seconds.
The wet hair tresses were inserted into a modified well plate into which holes had been drilled to allow them to be air dried. Once the tresses were dried, colorimetric readings were taken for color loss after water rinse. Hair tresses were reinserted into their respective wells along with beads and 2.5 mL of aqueous 50% Pantene Pro V® shampoo was pipetted onto the hair. The plate was placed into a VWR® VX-2500 Multi-tube Vortexer (VWR, West Chester, Pa.) for 5-15 minutes to simulate shampooing with embrocation. The hair tresses were then rinsed under flowing deionized water and air dried. This cycle was repeated according to the number of simulated embrocation cycles desired. Colorimetric data for color loss was compiled and plotted against peptide free controls. A difference of at least 3 Delta E units verses controls was judged to be sufficient for differentiating peptide performance verses peptide free controls.

Molecule	O.D. at 450 nm [1]	O.D. at 450 nm [2]	also measured
AANPHTEWDRDAFQLAMPPK [BoEn 1]	1.402	–	–
EPPTRTRVNNHTVTVQAQQH [BoEn P2]	–	0.641	–
GYCLRGDEPAVCSG [BoEn P3]	–	0.665	–
LNDQRKPGPPTMPTHSPAVG [BoEn 5]	0.944	–	–
NFCETQLDLSVCTV [BoEn P5]	–	0.797	–
NTCATSPNSYTCSN [BoEn 6]	2.38	–	–
NTCQPTKNATPCSA [BoEn P6]	–	0.83	–
SDCTAGLVPPLCAT [BoEn 7]	0.892	–	–
SSNYNYNYNYQYSSR (Peptide having affinity for hair) [Dye-1, reference compound]	–	–	ΔE Loss ([3]; pH 3.9, 12 shampoo equivalents): 14
SSNYNYNYNYQYSSR-EGEGER (SSNYNYNYNYQYSSREGEGER; Peptide having affinity for hair) [Dye-1 Anionic]	–	–	ΔE Loss ([3]; pH 4.5, 12 shampoo equivalents): 1.93; ΔE Loss ([3]; pH 8.8, 12 shampoo equivalents): 0.34
SSNYNYNYNYQYSSR-KRKRKD (SSNYNYNYNYQYSSRKRKRKD; Peptide having affinity for hair) [Dye-1 Cationic]	–	–	ΔE Loss ([3]; pH 4.5, 25 shampoo equivalents): 6; ΔE Loss ([3]; pH 8.7, 25 shampoo equivalents): 3.22
THNMSHFPPSGHPKRTAT [BoEn P8]	–	2.02	–
VGTMKQHPTTTQPPRVSATN [BoEn 9]	0.568	–	–
YSETPNDQKPNPHYKVSGTK [BoEn 10]	3.942	–	–
PG-PMMA9-GAG-PMMA9-GGSGPGSGG-KF11-GS(KGGGS)4-KF11-GGPWKK (Peptide having affinity for hair) PGIDTFYMSTMSHSGAGIDTFYMSTMSHSGGSGPGSGGNTSQLSTGSKGGGSKGGGSKGGGSKGGGSNTSQLSTGGPWKK	–	–	ΔE Loss ([3]; pH 5.7, 12 shampoo equivalents): 11.41
PG-PMMA4A-GAG-PMMA4A-GGSGPGSGG-KF11-GGG-KF11-GGPKK (Peptide having affinity for hair) PGHTHHDTHKPWPTDAHRNSSVGAGHTHHDTHKPWPTDAHRNSSVGGSGPGSGGNTSQLSTGGGNTSQLSTGGPKK	–	–	ΔE Loss ([3]; pH 5.1, 12 shampoo equivalents): 11.56; ΔE Loss ([3]; pH 8.8, 12 shampoo equivalents): 6.95
